System: MV-4-11 cells
Experiment: Gene expression microarray analysis (Affymetrix PrimeView) and GSEA
Assay type: cell-based, human
Parameters: RFU PODN (11730768_x_at) / Fold change /veh PODN (11730768_x_at) / RFU LINC00158 (11744669_a_at) / Fold change /veh LINC00158 (11744669_a_at) / RFU DUSP10 (11751237_a_at) / Fold change /veh DUSP10 (11751237_a_at) / RFU ID3 (11757404_x_at) / Fold change /veh ID3 (11757404_x_at) / RFU PLEKHG5 (11737974_s_at) / Fold change /veh PLEKHG5 (11737974_s_at) / RFU LRRC4B (11730491_at) / Fold change /veh LRRC4B (11730491_at) / RFU GIMAP4 (11747438_a_at) / Fold change /veh GIMAP4 (11747438_a_at) / RFU KRT8 (11758183_x_at) / Fold change /veh KRT8 (11758183_x_at) / RFU CNN1 (11734310_a_at) / Fold change /veh CNN1 (11734310_a_at) / RFU VPS37D (11726825_at) / Fold change /veh VPS37D (11726825_at) / RFU C10orf10 (11716522_x_at) / Fold change /veh C10orf10 (11716522_x_at) / RFU KIR2DL2 /// KIR2DL4 /// KIR2DL5A /// KIR2DL5B /// KIR2DS1 /// KIR2DS2 /// KIR2DS3 /// KIR2DS4 /// KIR3DL3 /// KIR3DL3 /// KIR3DS1 (11738374_at) / Fold change /veh KIR2DL2 /// KIR2DL4 /// KIR2DL5A /// KIR2DL5B /// KIR2DS1 /// KIR2DS2 /// KIR2DS3 /// KIR2DS4 /// KIR3DL3 /// KIR3DL3 /// KIR3DS1 (11738374_at) / RFU C1QL1 (11718748_at) / Fold change /veh C1QL1 (11718748_at) / RFU TMPRSS4 (11747572_a_at) / Fold change /veh TMPRSS4 (11747572_a_at) / RFU HAMP (11756126_x_at) / Fold change /veh HAMP (11756126_x_at) / RFU RNFT2 (11725882_a_at) / Fold change /veh RNFT2 (11725882_a_at) / RFU NR4A2 (11747474_a_at) / Fold change /veh NR4A2 (11747474_a_at) / RFU ABCC12 (11746883_a_at) / Fold change /veh ABCC12 (11746883_a_at) / RFU TMEM136 (11760407_x_at) / Fold change /veh TMEM136 (11760407_x_at) / RFU CLDN22 /// WWC2 (11732394_at) / Fold change /veh CLDN22 /// WWC2 (11732394_at) / RFU HLA-DPB1 (11760878_x_at) / Fold change /veh HLA-DPB1 (11760878_x_at) / RFU SPINT1 (11716480_a_at) / Fold change /veh SPINT1 (11716480_a_at) / RFU GAP43 (11754022_s_at) / Fold change /veh GAP43 (11754022_s_at) / RFU A4GNT (11735810_at) / Fold change /veh A4GNT (11735810_at) / RFU PRB3 (11715151_x_at) / Fold change /veh PRB3 (11715151_x_at) / RFU TUBB4B (11761932_at) / Fold change /veh TUBB4B (11761932_at) / RFU CAPN14 (11732068_a_at) / Fold change /veh CAPN14 (11732068_a_at) / RFU TMCC2 (11721928_a_at) / Fold change /veh TMCC2 (11721928_a_at) / RFU IRGQ (11745062_a_at) / Fold change /veh IRGQ (11745062_a_at) / RFU FAM174B (11720279_a_at) / Fold change /veh FAM174B (11720279_a_at) / RFU TMPRSS4 (11748680_a_at) / Fold change /veh TMPRSS4 (11748680_a_at) / RFU FAM212B (11763350_a_at) / Fold change /veh FAM212B (11763350_a_at) / RFU PLEKHG5 (11743358_a_at) / Fold change /veh PLEKHG5 (11743358_a_at) / RFU ZSCAN30 (11745921_a_at) / Fold change /veh ZSCAN30 (11745921_a_at) / RFU CMKLR1 (11741424_a_at) / Fold change /veh CMKLR1 (11741424_a_at) / RFU LOC101060620 /// MAPK8IP1 (11723275_at) / Fold change /veh LOC101060620 /// MAPK8IP1 (11723275_at) / RFU SPTSSB (11747773_x_at) / Fold change /veh SPTSSB (11747773_x_at) / RFU PRSS12 (11739890_at) / Fold change /veh PRSS12 (11739890_at) / RFU BIN1 (11741810_x_at) / Fold change /veh BIN1 (11741810_x_at) / RFU WNT11 (11732464_a_at) / Fold change /veh WNT11 (11732464_a_at) / RFU C10orf10 (11716521_a_at) / Fold change /veh C10orf10 (11716521_a_at) / RFU C5orf56 (11738089_at) / Fold change /veh C5orf56 (11738089_at) / RFU CYB561 (11721691_x_at) / Fold change /veh CYB561 (11721691_x_at) / RFU ANKRD19P (11752326_a_at) / Fold change /veh ANKRD19P (11752326_a_at) / RFU OR2T12 /// OR2T33 /// OR2T8 (11738714_s_at) / Fold change /veh OR2T12 /// OR2T33 /// OR2T8 (11738714_s_at) / RFU VCAN (11748164_a_at) / Fold change /veh VCAN (11748164_a_at) / RFU JSRP1 (11732532_at) / Fold change /veh JSRP1 (11732532_at) / RFU KRTAP10-11 (11738290_x_at) / Fold change /veh KRTAP10-11 (11738290_x_at) / RFU MYO3A (11730013_a_at) / Fold change /veh MYO3A (11730013_a_at) / RFU EBF3 (11725865_a_at) / Fold change /veh EBF3 (11725865_a_at) / RFU CAMK2N1 (11719241_x_at) / Fold change /veh CAMK2N1 (11719241_x_at) / RFU C5orf56 (11738088_a_at) / Fold change /veh C5orf56 (11738088_a_at) / RFU OLFML3 (11715873_a_at) / Fold change /veh OLFML3 (11715873_a_at) / RFU LOC100653217 /// NTM (11731650_a_at) / Fold change /veh LOC100653217 /// NTM (11731650_a_at) / RFU MAPK11 (11762145_a_at) / Fold change /veh MAPK11 (11762145_a_at) / RFU FIZ1 (11724087_x_at) / Fold change /veh FIZ1 (11724087_x_at) / RFU OASL (11726364_x_at) / Fold change /veh OASL (11726364_x_at) / RFU SOX15 (11748057_x_at) / Fold change /veh SOX15 (11748057_x_at) / RFU CD79A (11719716_a_at) / Fold change /veh CD79A (11719716_a_at) / RFU HIST1H1D (11736915_at) / Fold change /veh HIST1H1D (11736915_at) / RFU CASKIN2 (11723855_a_at) / Fold change /veh CASKIN2 (11723855_a_at) / RFU LOC730098 (11760151_x_at) / Fold change /veh LOC730098 (11760151_x_at) / RFU OR4N2 (11742367_at) / Fold change /veh OR4N2 (11742367_at) / RFU PRRT2 (11749266_a_at) / Fold change /veh PRRT2 (11749266_a_at) / RFU SNX32 (11753110_a_at) / Fold change /veh SNX32 (11753110_a_at) / RFU CDHR5 (11726645_a_at) / Fold change /veh CDHR5 (11726645_a_at) / RFU RCAN1 (11760418_a_at) / Fold change /veh RCAN1 (11760418_a_at) / RFU FAM167A (11723789_a_at) / Fold change /veh FAM167A (11723789_a_at) / RFU FAM26E (11764081_at) / Fold change /veh FAM26E (11764081_at) / RFU ISYNA1 (11749810_s_at) / Fold change /veh ISYNA1 (11749810_s_at) / RFU ACY1 (11761880_at) / Fold change /veh ACY1 (11761880_at) / RFU 11764098_at / Fold change /veh 11764098_at / RFU SAMD14 (11745864_x_at) / Fold change /veh SAMD14 (11745864_x_at) / RFU NPB (11741838_a_at) / Fold change /veh NPB (11741838_a_at) / RFU TMPRSS6 (11731388_a_at) / Fold change /veh TMPRSS6 (11731388_a_at) / RFU KRTAP10-2 (11738614_at) / Fold change /veh KRTAP10-2 (11738614_at) / RFU ARHGAP8 /// PRR5-ARHGAP8 (11727945_x_at) / Fold change /veh ARHGAP8 /// PRR5-ARHGAP8 (11727945_x_at) / RFU KRTAP5-7 /// NADSYN1 (11734609_at) / Fold change /veh KRTAP5-7 /// NADSYN1 (11734609_at) / RFU RASL12 (11751679_a_at) / Fold change /veh RASL12 (11751679_a_at) / RFU CDKN2B (11736163_a_at) / Fold change /veh CDKN2B (11736163_a_at) / RFU PRF1 (11729649_at) / Fold change /veh PRF1 (11729649_at) / RFU, ZNF638 /// ZNF638-IT1 / Fold change vs veh, ZNF638 /// ZNF638-IT1 / RFU, PANK3 / Fold change vs veh, PANK3 / RFU, SH3YL1 / Fold change vs veh, SH3YL1 / RFU, ZEB2 / Fold change vs veh, ZEB2 / RFU, NRIP1 / Fold change vs veh, NRIP1 / RFU, PTTG1IP / Fold change vs veh, PTTG1IP / RFU, CAPN2 / Fold change vs veh, CAPN2 / RFU, MED14 / Fold change vs veh, MED14 / RFU, SNORA58 / Fold change vs veh, SNORA58 / RFU, C1orf63 / Fold change vs veh, C1orf63 / RFU, LRRFIP1 / Fold change vs veh, LRRFIP1 / RFU, NDUFAF7 / Fold change vs veh, NDUFAF7 / RFU, SLC12A2 / Fold change vs veh, SLC12A2 / RFU, IBTK / Fold change vs veh, IBTK / RFU, ESF1 / Fold change vs veh, ESF1 / Fold change vs veh, TMEM50B / RFU, TAOK1 / Fold change vs veh, TAOK1 / RFU, ACBD3 / Fold change vs veh, ACBD3 / RFU, TMA16 / Fold change vs veh, TMA16 / RFU, RWDD3 / Fold change vs veh, RWDD3 / RFU, BCAT1 / Fold change vs veh, BCAT1 / RFU, EDEM3 / Fold change vs veh, EDEM3 / RFU, TMEM33 / Fold change vs veh, TMEM33 / RFU, WDR75 / Fold change vs veh, WDR75 / RFU, AHCTF1 / Fold change vs veh, AHCTF1 / RFU, TFRC / Fold change vs veh, TFRC / RFU, ZDHHC17 / Fold change vs veh, ZDHHC17 / RFU, NOM1 / Fold change vs veh, NOM1 / RFU, ARL8B / Fold change vs veh, ARL8B / RFU, ZBTB11 / Fold change vs veh, ZBTB11 / RFU, TAMM41 / Fold change vs veh, TAMM41 / RFU, KIAA1704 /// LOC100996395 / Fold change vs veh, KIAA1704 /// LOC100996395 / RFU, ING1 / Fold change vs veh, ING1 / RFU, TRMT61B / Fold change vs veh, TRMT61B / RFU, FUBP3 / Fold change vs veh, FUBP3 / RFU, TP53 / Fold change vs veh, TP53 / RFU, TNKS2 / Fold change vs veh, TNKS2 / RFU, ZFP14 / Fold change vs veh, ZFP14 / RFU, ACTR2 / Fold change vs veh, ACTR2 / RFU, PPP3R1 / Fold change vs veh, PPP3R1 / RFU, PIK3R1 / Fold change vs veh, PIK3R1 / RFU, HNRNPA1 / Fold change vs veh, HNRNPA1 / RFU, RNF170 / Fold change vs veh, RNF170 / RFU, ZNF28 / Fold change vs veh, ZNF28 / RFU, RNGTT / Fold change vs veh, RNGTT / RFU, OGT / Fold change vs veh, OGT / RFU, BRD1 / Fold change vs veh, BRD1 / RFU, MARS / Fold change vs veh, MARS / RFU, ZNF655 / Fold change vs veh, ZNF655 / RFU, FAHD1 / Fold change vs veh, FAHD1 / RFU, BDP1 / Fold change vs veh, BDP1 / RFU, LRRCC1 / Fold change vs veh, LRRCC1 / RFU, ARID1A / Fold change vs veh, ARID1A / RFU, ZNF146 / Fold change vs veh, ZNF146 / RFU, ZNF330 / Fold change vs veh, ZNF330 / RFU, GPN3 / Fold change vs veh, GPN3 / RFU, C9orf123 / Fold change vs veh, C9orf123 / RFU, N4BP2L2 / Fold change vs veh, N4BP2L2 / RFU, ARFIP1 / Fold change vs veh, ARFIP1 / RFU, FAM179B / Fold change vs veh, FAM179B / RFU, BCL10 / Fold change vs veh, BCL10 / RFU, UHRF1BP1L / Fold change vs veh, UHRF1BP1L / RFU, BET1 / Fold change vs veh, BET1 / RFU, CNOT2 / Fold change vs veh, CNOT2 / RFU, ZNF268 / Fold change vs veh, ZNF268 / Fold change vs veh, ZNF507 / RFU, DGCR2 / Fold change vs veh, DGCR2 / RFU, WDSUB1 / Fold change vs veh, WDSUB1 / Fold change vs veh, HSP90B1 /// MIR3652 / RFU, ADSS / Fold change vs veh, ADSS / RFU, GK / Fold change vs veh, GK / RFU, ZNF148 / Fold change vs veh, ZNF148 / RFU, TAF9 / Fold change vs veh, TAF9 / RFU, SLC1A5 / Fold change vs veh, SLC1A5 / RFU, SLMO2 / Fold change vs veh, SLMO2 / RFU, ABCC4 / Fold change vs veh, ABCC4 / RFU, LOC101060439 /// RAP1B / Fold change vs veh, LOC101060439 /// RAP1B / RFU, RFX7 / Fold change vs veh, RFX7 / RFU, GTPBP10 / Fold change vs veh, GTPBP10 / RFU, CNEP1R1 / Fold change vs veh, CNEP1R1 / RFU, BIVM-ERCC5 /// ERCC5 / Fold change vs veh, BIVM-ERCC5 /// ERCC5 / RFU, ILF3 / Fold change vs veh, ILF3 / RFU 11762660_at / Fold change /veh 11762660_at / RFU VCAN (11757783_s_at) / Fold change /veh VCAN (11757783_s_at) / RFU DDX43 (11728927_at) / Fold change /veh DDX43 (11728927_at) / RFU KRT8 (11758188_x_at) / Fold change /veh KRT8 (11758188_x_at) / RFU NKD1 (11759106_at) / Fold change /veh NKD1 (11759106_at) / RFU SRD5A1 (11742802_a_at) / Fold change /veh SRD5A1 (11742802_a_at) / RFU TPSAB1 /// TPSB2 (11721975_s_at) / Fold change /veh TPSAB1 /// TPSB2 (11721975_s_at) / RFU GSTM3 (11746129_a_at) / Fold change /veh GSTM3 (11746129_a_at) / RFU IL23R (11737362_x_at) / Fold change /veh IL23R (11737362_x_at) / RFU TMEM51 (11727254_a_at) / Fold change /veh TMEM51 (11727254_a_at) / RFU PIWIL2 (11732686_x_at) / Fold change /veh PIWIL2 (11732686_x_at) / RFU ORM1 (11744905_x_at) / Fold change /veh ORM1 (11744905_x_at) / RFU CCDC152 (11743942_at) / Fold change /veh CCDC152 (11743942_at) / RFU ECM1 (11717891_a_at) / Fold change /veh ECM1 (11717891_a_at) / RFU IL23R (11748794_a_at) / Fold change /veh IL23R (11748794_a_at) / RFU TNFAIP8L3 (11732012_x_at) / Fold change /veh TNFAIP8L3 (11732012_x_at) / RFU MBOAT4 (11741988_at) / Fold change /veh MBOAT4 (11741988_at) / RFU 11764193_at / Fold change /veh 11764193_at / RFU TMEM53 (11763286_at) / Fold change /veh TMEM53 (11763286_at) / RFU MAGEB2 (11727129_at) / Fold change /veh MAGEB2 (11727129_at) / RFU TMEM200A (11744735_a_at) / Fold change /veh TMEM200A (11744735_a_at) / RFU CCDC152 (11751479_a_at) / Fold change /veh CCDC152 (11751479_a_at) / RFU FAM211A (11726209_a_at) / Fold change /veh FAM211A (11726209_a_at) / RFU RGS16 (11746705_a_at) / Fold change /veh RGS16 (11746705_a_at) / RFU VCAN (11755009_s_at) / Fold change /veh VCAN (11755009_s_at) / RFU RHOB (11743442_s_at) / Fold change /veh RHOB (11743442_s_at) / RFU RGS16 (11720943_a_at) / Fold change /veh RGS16 (11720943_a_at) / RFU RGS16 (11720944_at) / Fold change /veh RGS16 (11720944_at) / RFU, VPS4B / Fold change vs veh, VPS4B / RFU, CREB1 / Fold change vs veh, CREB1 / RFU, DNAJC13 / Fold change vs veh, DNAJC13 / RFU, GNAQ / Fold change vs veh, GNAQ / RFU, CDK5R1 / Fold change vs veh, CDK5R1 / RFU, ZRANB3 / Fold change vs veh, ZRANB3 / RFU, CUL4A / Fold change vs veh, CUL4A / RFU, CCNY / Fold change vs veh, CCNY / RFU, UFL1 / Fold change vs veh, UFL1 / RFU, COG3 / Fold change vs veh, COG3 / RFU, DIAPH2 / Fold change vs veh, DIAPH2 / RFU, SKA2 / Fold change vs veh, SKA2 / RFU, AFF3 / Fold change vs veh, AFF3 / RFU, LMF1 / Fold change vs veh, LMF1 / RFU, IPO11 / Fold change vs veh, IPO11 / RFU, DFFB / Fold change vs veh, DFFB / RFU, FOXP1 / Fold change vs veh, FOXP1 / RFU, CARD8 / Fold change vs veh, CARD8 / RFU, STRN3 / Fold change vs veh, STRN3 / RFU, ADK / Fold change vs veh, ADK / RFU, RASSF2 / Fold change vs veh, RASSF2 / RFU, WIPF1 / Fold change vs veh, WIPF1 / RFU, LARP1B / Fold change vs veh, LARP1B / RFU, RASA1 / Fold change vs veh, RASA1 / RFU, RB1 / Fold change vs veh, RB1 / RFU, PPFIA1 / Fold change vs veh, PPFIA1 / RFU, MAT2A / Fold change vs veh, MAT2A / RFU, CCT5 / Fold change vs veh, CCT5 / RFU, WDR92 / Fold change vs veh, WDR92 / RFU, CUX1 / Fold change vs veh, CUX1 / RFU, TTC7A / Fold change vs veh, TTC7A / RFU, TMEM135 / Fold change vs veh, TMEM135 / RFU, DEPTOR / Fold change vs veh, DEPTOR / RFU, CPM / Fold change vs veh, CPM / RFU, DNAJB6 / Fold change vs veh, DNAJB6 / RFU, CACNA2D3 / Fold change vs veh, CACNA2D3 / RFU, DTX4 / Fold change vs veh, DTX4 / RFU, TFCP2 / Fold change vs veh, TFCP2 / RFU, GMCL1 /// GMCL1P1 / Fold change vs veh, GMCL1 /// GMCL1P1 / RFU, AEBP2 / Fold change vs veh, AEBP2 / RFU, SNHG1 /// SNORD22 /// SNORD25 /// SNORD26 /// SNORD27 /// SNORD28 /// SNORD29 /// SNORD31 / Fold change vs veh, SNHG1 /// SNORD22 /// SNORD25 /// SNORD26 /// SNORD27 /// SNORD28 /// SNORD29 /// SNORD31 / Fold change (Aza/veh), C12orf56 (ProbeSet 11735607_a_at) / Fold change (ACY-1035/veh), C12orf56 (ProbeSet 11735607_a_at) / Fold change (Aza/veh), FGFR1OP (ProbeSet 11751329_s_at) / Fold change (ACY-1035/veh), FGFR1OP (ProbeSet 11751329_s_at) / Fold change (Aza/veh), VPS36 (ProbeSet 11739960_a_at) / Fold change (ACY-1035/veh), VPS36 (ProbeSet 11739960_a_at) / RFU SYPL1 (11715823_x_at) / Fold change /veh SYPL1 (11715823_x_at) / RFU IGFBP7 (11715501_s_at) / Fold change /veh IGFBP7 (11715501_s_at) / RFU REEP3 (11722064_at) / Fold change /veh REEP3 (11722064_at) / RFU IGLL1 (11728026_x_at) / Fold change /veh IGLL1 (11728026_x_at): dose or concentration left out as unconfirmed
Settings: ProbeSet 11743510_at; LIST D

Nc1ncn([C@@H]2O[C@H](CO)[C@@H](O)[C@H]2O)c(=O)n1 [azacitidine]
RFU, UFL1: 314.03 RFU
